Drawing on PubChem BioAssay (NCI), this text covers TGI and GI50 for twelve compounds.

Among the test systems are SF-268 CNS; UACC-62 melanoma; UACC-257 melanoma; DU-145 prostate; NCI-H460 lung; MALME-3M melanoma; SK-OV-3 ovarian; U251 CNS.
Common to all, as to assay: growth of human tumour cells (NCI), 48 h

Each structure is given as a SMILES string.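 Five concentrations, 48 hours, 96-well plates. Abbreviation: GI50, concentration required for 50% inhibition of growth. TGI is the concentration that stops growth completely.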

As to `COC(=O)C1=C(C)NC(=S)NC1c1ccc(N(CCCl)CCCl)cc1Cl` (stereo unspecified), the TGI in the test on SF-268 CNS was 98.4 µM; in the test with UACC-62 melanoma it was 16.1 µM; in the test on UACC-257 melanoma, 44.5 µM; in the test on DU-145 prostate it was greater than 81.1 µM; with NCI-H460 lung it was greater than 100 µM; with MALME-3M melanoma it was 41.7 µM. In addition, the TGI in the test with SK-OV-3 ovarian and with U251 CNS was greater than 100 µM in each case.
Take `COc1ccc2c3ccnc(C(F)(F)F)c3n(CCCCN)c2c1`: the GI50 in the test with SF-268 CNS was 6.62 µM; in the test with UACC-62 melanoma it was 10.8 µM; in the test with UACC-257 melanoma it was 3.02 µM; in the test with DU-145 prostate, 9.04 µM; in the test on NCI-H460 lung it was 5.18 µM; in the test with MALME-3M melanoma it was 2.02 µM. Moreover, the GI50 was 10.5 µM in the test with SK-OV-3 ovarian and 7.31 µM in the test with U251 CNS. For the same compound, the TGI with SF-268 CNS was 21.5 µM; with UACC-62 melanoma, 23.2 µM; in the test with UACC-257 melanoma, 8.41 µM; in the test on DU-145 prostate, 21.2 µM; with NCI-H460 lung, 17.7 µM; with MALME-3M melanoma, 5.36 µM. In addition, the TGI with SK-OV-3 ovarian stood at 25.3 µM; with U251 CNS, 21.2 µM.
For `CC1=C(CCC(C)CO)O[C@H]2C[C@H]3[C@@H]4CC[C@H]5C[C@@H](O)CC[C@]5(C)[C@H]4CC(=O)[C@]3(C)[C@@H]12` (stereo partly specified), the TGI amounted to 57.6 µM in the test with SF-268 CNS; 18.1 µM in the test with UACC-62 melanoma; 36.6 µM in the test with UACC-257 melanoma; 55.1 µM in the test with DU-145 prostate; 21.8 µM in the test on NCI-H460 lung; 57.1 µM in the test with MALME-3M melanoma. For the same compound, the TGI in the test with SK-OV-3 ovarian was 43.4 µM; in the test with U251 CNS it was 37.8 µM.
Take `CC12CCC(C1)C(C)(C)C2OC(=O)c1ccccc1N` (stereo unspecified): the TGI with SF-268 CNS was 31.6 µM; in the test on UACC-62 melanoma, 29.2 µM; in the test with UACC-257 melanoma it was 29 µM; in the test with DU-145 prostate it was 33.3 µM; in the test with NCI-H460 lung, 30.7 µM; in the test with MALME-3M melanoma, 29.8 µM. The TGI with SK-OV-3 ovarian amounted to 30.3 µM; in the test with U251 CNS it was 32.6 µM.
Turning to `CN1CCN(Cc2ccc(NC(=O)c3cncc(C#Cc4ccc(N)nc4)c3)cc2C(F)(F)F)CC1`, the GI50 was 1.09 µM in the test with SF-268 CNS; 0.945 µM in the test on UACC-62 melanoma; 1.42 µM in the test on UACC-257 melanoma; 0.845 µM in the test with DU-145 prostate; 0.988 µM in the test on NCI-H460 lung; 0.535 µM with MALME-3M melanoma. Further, the GI50 is 0.693 µM in the test with SK-OV-3 ovarian and 0.924 µM in the test on U251 CNS. Further, the TGI amounted to 5.3 µM with SF-268 CNS; 3.48 µM in the test with UACC-62 melanoma; 5.27 µM with UACC-257 melanoma; 6.71 µM in the test on DU-145 prostate; 5.86 µM in the test with NCI-H460 lung; 1.46 µM in the test on MALME-3M melanoma. In addition, the TGI with SK-OV-3 ovarian is 4.69 µM; in the test on U251 CNS, 6.6 µM.
As for `NC1CC(=O)c2c(-c3cccs3)sc(-c3cccs3)c21` (stereo unspecified), the GI50 was 30.8 µM in the test with SF-268 CNS; 55.9 µM in the test with UACC-62 melanoma; 52.3 µM in the test on UACC-257 melanoma; 14.4 µM in the test on DU-145 prostate; 38.7 µM in the test with NCI-H460 lung; 37.8 µM in the test on MALME-3M melanoma. Moreover, the GI50 in the test with SK-OV-3 ovarian was greater than 100 µM; in the test on U251 CNS, 16.7 µM. The TGI in the test with SF-268 CNS is greater than 100 µM; in the test on UACC-62 melanoma it was greater than 100 µM; in the test on UACC-257 melanoma, greater than 100 µM; with DU-145 prostate it was 32.9 µM; in the test on NCI-H460 lung it was greater than 100 µM; in the test with MALME-3M melanoma it was greater than 100 µM. In addition, the TGI in the test with SK-OV-3 ovarian is greater than 100 µM; in the test on U251 CNS, 34 µM.
On to `Cc1ccc2ccccc2c1CSc1nc(N)nc2c1ncn2CC(C)C`, for which the TGI was greater than 100 µM in the test on SF-268 CNS; greater than 100 µM with UACC-62 melanoma; greater than 87.3 µM with UACC-257 melanoma; greater than 100 µM with DU-145 prostate; greater than 96.2 µM in the test with NCI-H460 lung; greater than 62.2 µM with MALME-3M melanoma. Also, the TGI with SK-OV-3 ovarian and in the test with U251 CNS was greater than 100 µM each time.
For the compound `Cc1ccc(NC(=O)COc2ccc(Cl)cc2)cc1Cl`, the TGI in the test on SF-268 CNS, in the test with UACC-62 melanoma, with UACC-257 melanoma, with DU-145 prostate, with NCI-H460 lung and with MALME-3M melanoma was greater than 100 µM in each case. Also, the TGI in the test with SK-OV-3 ovarian and in the test on U251 CNS was greater than 100 µM in each case.
For `C=C1C(=O)O[C@@H]2/C=C(/C)[C@@H](OC(C)=O)C[C@@H](O)/C(C)=C\[C@@H](OC(=O)[C@]3(C)O[C@@H]3C)[C@@H]12`, the TGI in the test with SF-268 CNS is 41.8 µM; in the test on UACC-62 melanoma, 31.9 µM; with UACC-257 melanoma, 33.2 µM; in the test on DU-145 prostate, 28.1 µM; in the test on NCI-H460 lung, 72.9 µM; in the test on MALME-3M melanoma, 11.6 µM. Moreover, the TGI in the test with SK-OV-3 ovarian was greater than 100 µM; in the test with U251 CNS it was 31.3 µM.
Consider `O=C(Nc1cccc([N+](=O)[O-])c1)c1cccc(C(=O)Nc2cccc([N+](=O)[O-])c2)c1`, for which the GI50 in the test with SF-268 CNS is 5.22 µM; with UACC-62 melanoma it was greater than 100 µM; in the test on UACC-257 melanoma, greater than 100 µM; in the test on DU-145 prostate, greater than 84.2 µM; in the test on NCI-H460 lung it was greater than 61.9 µM; with MALME-3M melanoma it was greater than 100 µM. Further, the figures for the GI50 with SK-OV-3 ovarian and in the test with U251 CNS were 13 µM and 7.15 µM, respectively. For the same compound, the TGI in the test on SF-268 CNS, with UACC-62 melanoma, with UACC-257 melanoma, in the test on DU-145 prostate, in the test with NCI-H460 lung and in the test on MALME-3M melanoma was greater than 100 µM throughout. The values for the TGI in the test with SK-OV-3 ovarian and in the test on U251 CNS were greater than 82.8 µM and greater than 68.2 µM, respectively.
With `N#C/C(=C\c1ccc[nH]1)c1cc(-c2ccc(Cl)cc2)nn1-c1ccccc1`, the GI50 was 4.05 µM in the test on SF-268 CNS; 7.39 µM in the test with UACC-62 melanoma; 10.9 µM in the test with UACC-257 melanoma; 3.81 µM with DU-145 prostate; 3.43 µM with NCI-H460 lung; 3.05 µM in the test with MALME-3M melanoma. Further, the GI50 was 7.88 µM in the test with SK-OV-3 ovarian and 7.07 µM in the test on U251 CNS. For the same compound, the TGI in the test with SF-268 CNS is 18.3 µM; with UACC-62 melanoma, 28.2 µM; with UACC-257 melanoma, 35.8 µM; in the test with DU-145 prostate, greater than 40.7 µM; with NCI-H460 lung, 13.3 µM; with MALME-3M melanoma, 17.2 µM. Also, the figures for the TGI with SK-OV-3 ovarian and in the test with U251 CNS were 40.2 µM and 24 µM, respectively.
In the case of `CC1(C)OCC2OC(n3cnc4c(N)nc(Cl)nc43)C(OS(C)(=O)=O)C2O1` (stereo unspecified), the TGI with SF-268 CNS, with UACC-62 melanoma, in the test with UACC-257 melanoma, in the test with DU-145 prostate, in the test on NCI-H460 lung and in the test on MALME-3M melanoma was greater than 100 µM throughout. Further, the TGI in the test on SK-OV-3 ovarian and in the test with U251 CNS was greater than 100 µM throughout.
